Laboratory results as given in patent publication US4800194A, “Acylphosphorotriamides useful as lipid-altering agents” (priority 1986, dated 1989).

Assays:
[1] = target: T1, acetylcholinesterase (Homo sapiens, UniProt P22303); experiment: Inhibition of acetylcholinesterase (AChE) activity of lysed human red blood cells (Test Method 1); format: biochemical; conditions: 60 min preincubation
T1 construct: The supernatant (lysed RBC's) was stored frozen; from tissue; host or cells: lysed human red blood cells (supernatant of hypotonic lysis)
T1 sequence (P22303 other isoform, or with tags, fused parts or gaps): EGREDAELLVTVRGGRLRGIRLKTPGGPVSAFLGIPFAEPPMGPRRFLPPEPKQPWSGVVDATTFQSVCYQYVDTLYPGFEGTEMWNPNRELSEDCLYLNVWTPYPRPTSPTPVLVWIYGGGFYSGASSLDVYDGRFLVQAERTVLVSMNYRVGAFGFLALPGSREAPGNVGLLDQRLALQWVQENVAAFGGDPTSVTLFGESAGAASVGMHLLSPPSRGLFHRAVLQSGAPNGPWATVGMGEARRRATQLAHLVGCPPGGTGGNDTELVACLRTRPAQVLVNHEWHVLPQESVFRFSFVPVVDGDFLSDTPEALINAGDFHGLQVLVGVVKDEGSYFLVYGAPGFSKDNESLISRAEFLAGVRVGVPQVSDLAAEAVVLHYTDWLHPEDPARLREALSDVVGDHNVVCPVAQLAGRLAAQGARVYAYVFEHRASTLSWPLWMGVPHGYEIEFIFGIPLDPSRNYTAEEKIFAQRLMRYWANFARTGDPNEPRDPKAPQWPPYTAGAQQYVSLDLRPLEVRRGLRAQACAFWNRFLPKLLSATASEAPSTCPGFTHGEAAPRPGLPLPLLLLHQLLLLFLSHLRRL
Experimental: (§1) The following method was used to determine the relative inhibition of pseudocholinesterase and acetylcholinesterase by compounds of the present invention.
Lysed Red Blood Cells (RBC's) (Source of Acetylcholinesterase Enzyme)
Human blood which was collected in EDTA treated tubes was centrifuged at 1500×g for 10 min. at 4° C. One volume of chilled 0.9% saline solution was gently mixed with one volume of packed RBC's. One volume of this suspension was then washed three times with ten volumes of chilled 0.9% saline solution (4° C.). Each wash was centrifuged at 1500×g for 10 min. at 4° C. and supernatant was discarded. After the last wash the supernatant was replaced with deionized, distilled water (treated by Milli-Q apparatus, Millipore Corp., Bedford, MA) (4° C.). After 15 min. at 4° C. the suspension was centrifuged at 1500×g for 10 min. at 4° C. The supernatant (lysed RBC's) was stored frozen at -20° C. until use.
(§2) The buffer/chromogen solution was 0.25 mM 5,5'-dithiobis-[2-nitrobenzoic acid] (chromogen), 50 mM phosphate buffer, pH 7.2. In making up the buffer/chromogen solution and to keep it as colorless as possible, the phosphate buffer was first adjusted to pH 7.1 with NaOH; the chromogen was then added and dissolved; the pH was adjusted to 7.2; and the final volume was adjusted with addition of Milli-Q water. 5,5'-dithiobis-(2-nitrobenzoic acid) was obtained from Sigma Chemicals, St. Louis, MO.
(§3) The substrate solution for the pseudocholinesterase assay was 156 mM S-butyrylthiocholine iodide, and the substrate solution for the acetylcholinesterase assay was 156 mM S-acetylthiocholine iodide. Both substrate compounds were obtained from Sigma Chemicals.
(§4) Test Compound Stock Solutions
(§5) Solutions of all test compounds were made up at 2 μM, 20 μM, and 200 μM concentrations (in 0.9% saline solution) except as noted where lower concentrations were necessary because of decreased solubility of the compound in saline solution.
Acetylcholinesterase (AChE) Assay
The acetylcholinesterase assay was performed identically to the pseudocholinesterase assay with the following exceptions. The concentrations of the stock solutions of test compounds were 20 μM and 200 μM, instead of 2 μM and 20 μM, and the substrate solution was 156 mM S-acetylthiocholine iodide instead of S-butyrylthiocholine iodide. The lysed RBC's/test compound solution was incubated for 0 and 60 minutes instead of 0 and 30 minutes before being added to the cuvette containing the buffer/chromogen/substrate solution. From a plot of net absorbance versus time there was an initial period before the curve reached a steady linear rate. From this linear portion of the curve a rate of absorbance change per minute was calculated.
(§6) Each compound was tested for its ability to inhibit plasma pseudocholinesterase activity and acetylcholinesterase activity. Because of variation in the time points in the linear portion of the curve, inhibition values below 10-15% and higher than 85-90% are nearly indistinguishable from 0% and 100%, respectively.

[2] = target: T2, pseudocholinesterase (Homo sapiens, UniProt P06276); experiment: Inhibition of human plasma pseudocholinesterase (PChE) activity (Test Method 1); format: biochemical; conditions: 30 min preincubation
T2 construct: a 100 μl aliquot of human plasma; from tissue; host or cells: human plasma (EDTA blood, stored frozen)
T2 sequence (P06276 29-602): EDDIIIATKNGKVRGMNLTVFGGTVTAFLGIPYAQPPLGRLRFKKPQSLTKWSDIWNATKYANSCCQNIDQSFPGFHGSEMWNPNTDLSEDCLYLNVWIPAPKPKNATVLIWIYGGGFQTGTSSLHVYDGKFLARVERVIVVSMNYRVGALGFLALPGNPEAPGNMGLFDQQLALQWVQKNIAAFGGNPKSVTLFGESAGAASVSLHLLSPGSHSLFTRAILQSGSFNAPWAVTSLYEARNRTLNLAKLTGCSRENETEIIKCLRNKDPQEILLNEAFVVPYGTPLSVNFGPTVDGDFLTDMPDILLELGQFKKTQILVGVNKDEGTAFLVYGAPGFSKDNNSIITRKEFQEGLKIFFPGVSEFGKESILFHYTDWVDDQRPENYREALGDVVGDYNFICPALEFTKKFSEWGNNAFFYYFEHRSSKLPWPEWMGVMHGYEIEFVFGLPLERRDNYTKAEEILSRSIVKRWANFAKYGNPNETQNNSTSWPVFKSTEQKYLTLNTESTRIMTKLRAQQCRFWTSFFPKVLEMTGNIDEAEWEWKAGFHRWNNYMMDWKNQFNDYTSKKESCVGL
Experimental: as §1
Plasma (Source of Pseudocholinesterase Enzyme)
Human Plasma was obtained from blood which was collected in ethylenediaminetetraacetic acid (EDTA) treated tubes. Collected plasma was stored frozen at -20° C. until use.
as §2, §3, §4, §5
Pseudocholinesterase (PChE) Assay
In three separate tubes, a 100 μl aliquot of either 0.9% saline solution, 2 μM test compound solution, or 20 μM test compound solution was mixed with a 100 μl aliquot of human plasma, and the tubes were placed in a 35° C. water bath. Four cuvettes, each containing 3 ml buffer/chromogen solution mixed with 100 μl substrate solution (156 mM S-butyrylthiocholine iodide), had been placed in a heated cuvette holder (35° C.) in a Beckman DU-8B Spectrophotometer (Beckman Instruments). After the temperature of the buffer/chromogen/substrate solution in the cuvette had equilibrated for about 10 minutes, and after 0 or 30 minutes incubation of the plasma/test compound solution, a 25 μl aliquot of the plasma/test compound solutions was added to the corresponding cuvettes numbered 2-4. Cuvette #1 remained a blank. After mixing, the net absorbance of each cuvette was determined at 405 nm every 35 seconds for ten readings. From a plot of net absorbance versus time, the initial linear portion of the curve was determined, and a rate of absorbance change per minute was calculated. The positive control (100% PChE activity) was the plasma/saline solution.
as §6

[3] = system: pseudocholinesterase; conditions: accidental poisoning; cited from earlier work
[4] = accidental poisoning; cited from earlier work

| Structure (SMILES) | inhibition at 10 µM [1] | inhibition at 100 µM [1] | inhibition at 1 µM [2] | inhibition at 10 µM ([2]; 10 μM) | also measured |
| --- | --- | --- | --- | --- | --- |
| CC(C)(C)c1ccc(C(=O)NP(N)(N)=O)cc1 [Test Compound 16] | 3.1% | 38.7% | 46.3% | 97.9% |  |
| NP(N)(=O)NC(=O)c1cccc(Oc2ccccc2)c1 [Test Compound 19] | 15.8% | 64.2% | 63.7% | 98.3% |  |
| NP(N)(=O)NC(=O)c1ccc([N+](=O)[O-])cc1 [Test Compound 3] | 64.3% | 86.9% | 90.4% | 99% |  |
| NP(N)(=O)NC(=O)Cc1ccccc1 [Test Compound 18] | 17.1% | 85.2% | 10.7% | 61.3% |  |
| NP(N)(=O)NC(=O)c1ccco1 [Test Compound 26] | 7.7% | 73% | 91% | 98.7% |  |
| NP(N)(=O)NC(=O)c1ccccc1Cl [Test Compound 11] | 32.1% | 87.3% | 49.5% | 98.5% |  |
| NP(N)(=O)NC(=O)c1cccc([N+](=O)[O-])c1 [Test Compound 7] | 23.9% | 86.6% | 65.6% | 98.9% |  |
| NP(N)(=O)NC(=O)c1ccc(Cl)cc1 [Test Compound 6] | 5.4% | 86.5% | 87.7% | 98.7% |  |
| NP(N)(=O)NC(=O)c1cccc(F)c1 [Test Compound 13] | -4% | 41.3% | 80.2% | 98.8% |  |
| NP(N)(=O)NC(=O)c1ccccc1F [Test Compound 15] | 14.7% | 82.1% | 97.4% | 99.3% |  |
| NP(N)(=O)NC(=O)C=Cc1ccccc1 [Test Compound 23] | 6.6% | 54.8% | 11.5% | 73.2% |  |
| NP(N)(=O)NC(=O)c1ccccc1 [Test Compound 1] | 4.1% | 37.3% | 92.7% | 99.1% |  |
| Nc1ccc(C(=O)NP(N)(N)=O)cc1 [Test Compound 5] | 1.8% | 32.1% | 57.7% | 98.2% |  |
| Cc1ccc(C(=O)NP(N)(N)=O)cc1 [Test Compound 9] | 9.6% | 46% | 73.7% | 98.1% |  |
| NP(N)(=O)NC(=O)c1ccc2ccccc2c1 [Test Compound 17] |  |  |  |  | inhibition at 5 µM ([1]; 5 μM (footnote a)): 16%; inhibition at 50 µM ([1]; 50 μM (footnote a)): 87.2%; inhibition at 0.5 µM ([2]; 0.5 μM (footnote a)): 27.4%; inhibition at 5 µM ([2]; 5.0 μM (footnote a)): 95.1% |
| CC(C)NP(N)(=O)NC(=O)c1ccc(F)cc1 (stereo not drawn) [Test Compound 27, N-[amino-(1-methylethylamino)phosphinyl]-4-fluorobenzamide] |  |  |  |  | inhibition at 50 µM ([1]; 50 μM (footnote c)): 5.8%; inhibition at 500 µM ([1]; 500 μM (footnote c)): 32.2%; inhibition at 10 µM ([2]; 10 μM (footnote c)): 8.7%; inhibition at 100 µM ([2]; 100 μM (footnote c)): 43.3% |
| Cc1ccccc1C(=O)NP(N)(N)=O [Test Compound 10] | 8.6% | 44.5% | 21.4% | 89.2% |  |
| CCCCOc1ccc(C(=O)NP(N)(N)=O)cc1 [Test Compound 22] | 12.6% | 57.4% | 28.8% | 94.9% |  |
| N#Cc1ccc(C(=O)NP(N)(N)=O)cc1 [Test Compound 12] | 34.4% | 85.5% | 97.4% | 98.8% |  |
| Nc1ccc(S(=O)(=O)Nc2cccc(C(=O)NP(N)(N)=O)c2)cc1 [Test Compound 25] | 62.2% | 88.5% | 97.2% | 99% |  |
| NP(N)(=O)NC(=O)c1c(F)cccc1F [Test Compound 21] | 51.1% | 93.7% | 74.4% | 98.7% |  |
| NP(N)(=O)NC(=O)c1cccc(C(F)(F)F)c1 [Test Compound 14] | 25.7% | 85.9% | 25% | 94.1% |  |
| NP(N)(=O)NC(=O)c1ccc([N+](=O)[O-])o1 [Test Compound 28] | 46.9% | 93.1% | 21% | 90.8% |  |
| CS(=O)(=O)c1ccc(C(=O)NP(N)(N)=O)cc1 [Test Compound 20, N-(diaminophosphinyl)-4-(methylsulfonyl)benzamide] | 20.5% | 86.4% | 92.9% | 98.5% |  |
| COc1ccc(C(=O)NP(N)(N)=O)cc1 [Test Compound 8] | 3% | 34.2% | 83.4% | 96.3% |  |
| CCOP(=S)(OCC)Oc1ccc([N+](=O)[O-])cc1 [parathione] |  |  |  |  | blood plasma level of pseudocholinesterase [3]: markedly decreased; HDL [4]: increased; blood plasma level of LDL [4]: markedly decreased |
| NP(N)(=O)NC(=O)c1cccnc1 [Test Compound 2] | -1.9% | 70.7% | 84.1% | 97.6% |  |
| NP(N)(=O)NC(=O)c1ccc(-c2ccccc2)cc1 [Test Compound 24] |  |  |  |  | inhibition at 2.5 µM ([1]; 2.5 μM (footnote b)): -3.7%; inhibition at 25 µM ([1]; 25 μM (footnote b)): 34.8%; inhibition at 0.25 µM ([2]; 0.25 μM (footnote b)): 5.3%; inhibition at 2.5 µM ([2]; 2.5 μM (footnote b)): 66.6% |
